Legend:
K-Ras WT = biological target: T1, K-Ras WT (Homo sapiens, UniProt P01116); assay: HTRF resonance energy transfer assay, K-Ras WT / SOS1 interaction; assay type: biochemical; conditions: HTRF assay of Example 5; read-out: IC50 against K-Ras WT
T1 construct: made in house; host or cells: E. coli BL21 (DE3)
Method in brief: (§1)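 GST-tagged K-Ras (WT or mutant) bound to anti-GST-Eu donor was mixed with His-hSOS1 bound to anti-6His-XL665 acceptor in ~5 mM HEPES pH 7.4, 150 mM NaCl, 1 mM DTT, 0.05% BSA, 0.0025% Igepal. HTRF (ex 337, em 620/665 nm) was read after ~10 min or longer. IC50 came from the 665/620 ratio over duplicates from 10 μM to 0.01 μM.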

SW620 cells = assay: Ras cellular assay, growth of cells with K-Ras G12V mutation (CellTiter-Glo); assay type: cell-based; conditions: Homo sapiens, SW-620; cell growth, Example 9, G12V mutation; read-out: IC50 against SW620 cells
Method in brief: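 SW620 (K-Ras G12V) cells, e.g. 800/well in RPMI-1640 with 10% heat-inactivated FBS on standard or ultra-low attachment plates, were dosed the day after plating with e.g. a 10-point 3-fold series. Viability by CellTiter-Glo luminescence about 6 days later; IC50 from four-parameter fit.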

K-Ras G12D = biological target: T2, K-Ras G12D (Homo sapiens, UniProt P01116, G12D); assay: HTRF resonance energy transfer assay, K-Ras G12D / SOS1 interaction; assay type: biochemical; conditions: HTRF assay of Example 5; read-out: IC50 against K-Ras G12D
T2 construct: made in house; host or cells: E. coli BL21 (DE3)
T2 sequence (P01116 1-188 isoform P01116-2 G12D): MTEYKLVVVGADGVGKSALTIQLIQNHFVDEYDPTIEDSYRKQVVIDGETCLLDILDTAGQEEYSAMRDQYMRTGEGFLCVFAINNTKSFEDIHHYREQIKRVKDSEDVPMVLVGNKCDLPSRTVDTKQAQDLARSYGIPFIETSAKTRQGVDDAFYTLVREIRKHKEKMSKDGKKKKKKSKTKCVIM
Method in brief: as §1

K-Ras G12V = biological target: T3, K-Ras G12V (Homo sapiens, UniProt P01116, G12V); assay: HTRF resonance energy transfer assay, K-Ras G12V / SOS1 interaction; assay type: biochemical; conditions: HTRF assay of Example 5; read-out: IC50 against K-Ras G12V
T3 construct: made in house; host or cells: E. coli BL21 (DE3)
T3 sequence (P01116 1-188 isoform P01116-2 G12V): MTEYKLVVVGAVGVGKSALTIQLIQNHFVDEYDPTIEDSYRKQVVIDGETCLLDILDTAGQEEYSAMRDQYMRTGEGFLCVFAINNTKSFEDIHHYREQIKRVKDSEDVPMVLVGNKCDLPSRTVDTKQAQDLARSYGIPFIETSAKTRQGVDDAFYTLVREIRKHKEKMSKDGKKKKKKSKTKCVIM
Method in brief: as §1

K-Ras G12S = biological target: T4, K-Ras G12S (Homo sapiens, UniProt P01116, G12S); assay: HTRF resonance energy transfer assay, K-Ras G12S / SOS1 interaction; assay type: biochemical; conditions: HTRF assay of Example 5; read-out: IC50 against K-Ras G12S
T4 construct: made in house; host or cells: E. coli BL21 (DE3)
T4 sequence (P01116 1-188 isoform P01116-2 G12S): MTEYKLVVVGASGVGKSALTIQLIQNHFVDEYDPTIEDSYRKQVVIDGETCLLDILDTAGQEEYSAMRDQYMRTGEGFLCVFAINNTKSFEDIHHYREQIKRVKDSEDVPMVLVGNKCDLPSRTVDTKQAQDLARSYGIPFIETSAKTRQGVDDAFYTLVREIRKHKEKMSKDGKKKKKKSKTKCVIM
Method in brief: as §1

A549 cells = assay: Ras cellular assay, growth of cells with K-Ras G12S mutation (CellTiter-Glo); assay type: cell-based; conditions: Homo sapiens, cell growth, Example 9, G12S mutation, read-out: IC50 against A549 cells
Method in brief: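 A549 cells (K-Ras G12S) in RPMI-1640 with 10% heat-inactivated FBS, seeded e.g. 800 per well in standard or ultra-low-attachment 384-well plates, treated next day with a dilution series (e.g. 10-point, 3-fold). Viability by CellTiter-Glo luminescence about 6 days later; IC50 from four-parameter fit.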

T1 sequence (P01116 1-188 isoform P01116-2): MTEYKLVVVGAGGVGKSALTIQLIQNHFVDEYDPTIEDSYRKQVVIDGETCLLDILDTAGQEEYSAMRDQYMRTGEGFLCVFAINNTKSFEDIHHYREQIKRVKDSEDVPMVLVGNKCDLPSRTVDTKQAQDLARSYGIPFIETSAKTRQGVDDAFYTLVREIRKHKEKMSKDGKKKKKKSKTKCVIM

Row | IC50 (K-Ras WT) [nM] | IC50 (SW620 cells) [nM] | IC50 (K-Ras G12D) [nM] | IC50 (K-Ras G12V) [nM] | IC50 (K-Ras G12S) [nM] | IC50 (A549 cells) [nM] | Compound
1 | < 100 | < 5000 | < 100 | < 100 | < 100 | < 5000 | CC1CCOc2c(Cl)c(-c3ccc(F)c4sc(N)c(C#N)c34)c(F)c3nc(OC[C@@]45CCCN4C[C@H](F)C5)nc(c23)N1C1CC1 (stereo partly drawn) [Compound 1215, 2-amino-4-(9-chloro-4-cyclopropyl-11-fluoro-2-(((2R,7aS)-2-fluorotetrahydro-1H-pyrrolizin-7a(5H)-yl)methoxy)-5-methyl-4,5,6,7-tetrahydro-[1,5]oxazocino[4,3,2-de]quinazolin-10-yl)-7-fluorobenzo[b]thiophene-3-carbonitrile]
2 | < 100 | < 5000 | < 100 | < 100 | < 100 | < 5000 | CNC(=O)C1CCC(N2CCOc3c(Cl)c(-c4ccc(F)c5sc(N)c(C#N)c45)c(F)c4nc(OC[C@@]56CCCN5C[C@H](F)C6)nc2c34)CC1 (stereo partly drawn) [Compound 1120, 4-(9-(2-amino-3-cyano-7-fluorobenzo[b]thiophen-4-yl)-8-chloro-10-fluoro-2-(((2R,7aS)-2-fluorotetrahydro-1H-pyrrolizin-7a(5H)-yl)methoxy)-5,6-dihydro-4H-[1,4]oxazepino[5,6,7-de]quinazolin-4-yl)-N-methylcyclohexane-1-carboxamide]
3 | < 100 | < 5000 | < 100 | < 100 | < 100 | < 5000 | C#Cc1c(F)ccc2cc(O)cc(-c3nc4c5c(nc(OC[C@@]67CCCN6C[C@H](F)C7)nc5c3F)N(c3ccccc3)CCO4)c12 [Compound 948, 5-ethynyl-6-fluoro-4-(4-fluoro-2-(((2R,7aS)-2-fluorotetrahydro-1H-pyrrolizin-7a(5H)-yl)methoxy)-10-phenyl-9,10-dihydro-8H-7-oxa-1,3,6,10-tetraazacyclohepta[de]naphthalen-5-yl)naphthalen-2-ol]
4 | < 100 | < 5000 | < 100 | < 100 | < 100 | < 5000 | N#Cc1c(N)sc2c(F)ccc(-c3c(Cl)c4c5c(nc(OC[C@@]67CCCN6C[C@H](F)C7)nc5c3F)N(C3CC(C#N)C3)CCO4)c12 (stereo partly drawn) [Compound 1043, 2-amino-4-(8-chloro-4-(3-cyanocyclobutyl)-10-fluoro-2-(((2R,7aS)-2-fluorotetrahydro-1H-pyrrolizin-7a(5H)-yl)methoxy)-5,6-dihydro-4H-[1,4]oxazepino[5,6,7-de]quinazolin-9-yl)-7-fluorobenzo[b]thiophene-3-carbonitrile]

The next lines start with the compound.

Row | Compound | IC50 (K-Ras WT) [nM] | IC50 (SW620 cells) [nM] | IC50 (K-Ras G12D) [nM] | IC50 (K-Ras G12V) [nM] | IC50 (K-Ras G12S) [nM] | IC50 (A549 cells) [nM]
5 | CNC(=O)C1CC(N2CCOc3c(Cl)c(-c4ccc(F)c5sc(N)c(C#N)c45)c(F)c4nc(OC[C@@]56CCCN5C[C@H](F)C6)nc2c34)C1 (stereo partly drawn) [Compound 859, 3-(9-(2-amino-3-cyano-7-fluorobenzo[b]thiophen-4-yl)-8-chloro-10-fluoro-2-(((2R,7aS)-2-fluorotetrahydro-1H-pyrrolizin-7a(5H)-yl)methoxy)-5,6-dihydro-4H-[1,4]oxazepino[5,6,7-de]quinazolin-4-yl)-N-methylcyclobutane-1-carboxamide] | < 100 | < 5000 | < 100 | < 100 | < 100 | < 5000
6 | N#Cc1c(N)sc2c(F)ccc(-c3c(Cl)c4c5c(nc(OC[C@@]67CCCN6C[C@H](F)C7)nc5c3F)N(C3CCC(NC=O)C3)CCO4)c12 (stereo partly drawn) [Compound 829, N-(3-(9-(2-amino-3-cyano-7-fluorobenzo[b]thiophen-4-yl)-8-chloro-10-fluoro-2-(((2R,7aS)-2—fluorotetrahydro-1H-pyrrolizin-7a(5H)-yl)methoxy)-5,6-dihydro-4H-[1,4]oxazepino[5,6,7-de]quinazolin-4-yl)cyclopentyl)formamide] | < 100 | < 5000 | < 100 | < 100 | < 100 | < 5000
7 | N#Cc1c(N)sc2c(F)ccc(-c3c(Cl)c4c5c(nc(OC[C@@]67CCCN6C[C@H](F)C7)nc5c3F)N(C3CC(NC(=O)[C@@H]5N[C@H]5C5CC5)C3)CCO4)c12 (stereo partly drawn) [Compound 1082, (2R,3S)-N-(3-(9-(2-amino-3-cyano-7-fluorobenzo[b]thiophen-4-yl)-8-chloro-10-fluoro-2-(((2R,7aS)-2-fluorotetrahydro-1H-pyrrolizin-7a(5H)-yl)methoxy)-5,6-dihydro-4H-[1,4]oxazepino[5,6,7-de]quinazolin-4-yl)cyclobutyl)-3-cyclopropylaziridine-2-carboxamide] | < 100 | < 5000 | < 100 | < 100 | < 100 | < 5000
8 | N#Cc1c(N)sc2c(F)ccc(-c3c(Cl)c4c5c(nc(OCC67CCCN6C[C@H](F)C7)nc5c3F)N(C3CCCOCC3)CCO4)c12 (stereo partly drawn) [Compound 902, 2-amino-4-(8-chloro-10-fluoro-2-(((2R)-2-fluorotetrahydro-1H-pyrrolizin-7a(5H)-yl)methoxy)-4-(oxepan-4-yl)-5,6-dihydro-4H-[1,4]oxazepino[5,6,7-de]quinazolin-9-yl)-7-fluorobenzo[b]thiophene-3-carbonitrile] | < 100 | < 5000 | < 100 | < 100 | < 100 | < 5000
9 | CC1Oc2c(Cl)c(-c3ccc(F)c4sc(N)c(C#N)c34)c(F)c3nc(OC[C@@]45CCCN4C[C@H](F)C5)nc(c23)N(C2CC2)C1C (stereo partly drawn) [Compound 929, 2-amino-4-(8-chloro-4-cyclopropyl-10-fluoro-2-(((2R,7aS)-2-fluorotetrahydro-1H-pyrrolizin-7a(5H)-yl)methoxy)-5,6-dimethyl-5,6-dihydro-4H-[1,4]oxazepino[5,6,7-de]quinazolin-9-yl)-7-fluorobenzo[b]thiophene-3-carbonitrile] | < 100 | < 5000 | < 100 | < 100 | < 100 | < 5000
10 | C[C@H](Oc1nc2c3c(c(Cl)c(-c4ccc(F)c5sc(N)c(C#N)c45)c(F)c3n1)OCCN2C1CCCN(C(=O)C2CCC2)C1)[C@@H]1CCCN1C (stereo partly drawn) [Compound 862, 2-amino-4-(8-chloro-4-(1-(cyclobutanecarbonyl)piperidin-3-yl)-10-fluoro-2-((S)-1-((S)-1-methylpyrrolidin-2-yl)ethoxy)-5,6-dihydro-4H-[1,4]oxazepino[5,6,7-de]quinazolin-9-yl)-7-fluorobenzo[b]thiophene-3-carbonitrile] | < 100 | < 5000 | < 100 | < 100 | < 100 | < 5000
11 | COCC1COc2c(Cl)c(-c3ccc(F)c4sc(N)c(C#N)c34)c(F)c3nc(OC[C@@]45CCCN4C[C@H](F)C5)nc(c23)N1C (stereo partly drawn) [Compound 887, 2-amino-4-(8-chloro-10-fluoro-2-(((2R,7aS)-2-fluorotetrahydro-1H-pyrrolizin-7a(5H)-yl)methoxy)-5-(methoxymethyl)-4-methyl-5,6-dihydro-4H-[1,4]oxazepino[5,6,7-de]quinazolin-9-yl)-7-fluorobenzo[b]thiophene-3-carbonitrile] | < 100 | < 5000 | < 100 | < 100 | < 100 | < 5000
12 | COCCN1CCC(N2CCOc3c(Cl)c(-c4ccc(F)c5sc(N)c(C#N)c45)c(F)c4nc(OC[C@@]56CCCN5C[C@H](F)C6)nc2c34)C1 (stereo partly drawn) [Compound 936, 2-amino-4-(8-chloro-10-fluoro-2-(((2R,7aS)-2-fluorotetrahydro-1H-pyrrolizin-7a(5H)-yl)methoxy)-4-(1-(2-methoxyethyl)pyrrolidin-3-yl)-5,6-dihydro-4H-[1,4]oxazepino[5,6,7-de]quinazolin-9-yl)-7-fluorobenzo[b]thiophene-3-carbonitrile] | < 100 | < 5000 | < 100 | < 100 | < 100 | < 5000
13 | C[C@H](Oc1nc2c3c(c(Cl)c(-c4ccc(F)c5sc(N)c(C#N)c45)c(F)c3n1)OCCN2C1CCN(C(=O)C2CC2C#N)CC1)[C@@H]1CCCN1C (stereo partly drawn) [Compound 839, 2-amino-4-(8-chloro-4-(1-(trans-2-cyanocyclopropane-1-carbonyl)piperidin-4-yl)-10-fluoro-2-((S)-1-((S)-1-methylpyrrolidin-2-yl)ethoxy)-5,6-dihydro-4H-[1,4]oxazepino[5,6,7-de]quinazolin-9-yl)-7-fluorobenzo[b]thiophene-3-carbonitrile] | < 100 | < 5000 | < 100 | < 100 | < 100 | < 5000

— patent publication US12209102B2, “Heterocyclic compounds and uses thereof” (Kumquat Biosciences Inc., priority 2022, dated 2025)
